# Results as given in ChEMBL document CHEMBL6103578, “Design and synthesis three novel series of derivatives using natural acetylcholinesterase inhibitor-RLMS as template and in vitro, in vivo and in silico activities verification” (Eur J Med Chem, 2025).
# Activity calls are given as the source filed them. No cut-off for these calls is given here.
# Key:
# [1] = target: T1, Acetylcholinesterase (Homo sapiens, UniProt P22303); assay: Inhibition of AChE (unknown origin) using ATCI as substrate preincubated for 20 mins followed by substrate addition measured after 30 mins by DTNB assay
# [2] = tested on: SH-SY5Y; assay: Neuroprotective effect against H2O2-induced cell injury in human SH-SY5Y cells assessed as cell survival at 25 to 100 uM preincubated for 1 hr followed by H2O2 addition measured after 2 hrs by MTT assay (reference value: 57.76 %); format: functional; conditions: dose 25-100 µM, time 3 hrs
# [3] = tested on: SH-SY5Y; assay: Neuroprotective effect against H2O2-induced cell injury in human SH-SY5Y cells assessed as cell survival at 25 uM preincubated for 1 hr followed by H2O2 addition measured after 2 hrs by MTT assay (reference value: 57.76 %); format: functional; conditions: time 3 hrs, read-out: Activity
# [4] = target: T1, Acetylcholinesterase; assay: Mixed competitive inhibition of AChE (unknown origin) at 2.5 to 15 uM by DTNB assay; conditions: dose 2.5-15 µM
# T1 sequence (P22303 whole entry): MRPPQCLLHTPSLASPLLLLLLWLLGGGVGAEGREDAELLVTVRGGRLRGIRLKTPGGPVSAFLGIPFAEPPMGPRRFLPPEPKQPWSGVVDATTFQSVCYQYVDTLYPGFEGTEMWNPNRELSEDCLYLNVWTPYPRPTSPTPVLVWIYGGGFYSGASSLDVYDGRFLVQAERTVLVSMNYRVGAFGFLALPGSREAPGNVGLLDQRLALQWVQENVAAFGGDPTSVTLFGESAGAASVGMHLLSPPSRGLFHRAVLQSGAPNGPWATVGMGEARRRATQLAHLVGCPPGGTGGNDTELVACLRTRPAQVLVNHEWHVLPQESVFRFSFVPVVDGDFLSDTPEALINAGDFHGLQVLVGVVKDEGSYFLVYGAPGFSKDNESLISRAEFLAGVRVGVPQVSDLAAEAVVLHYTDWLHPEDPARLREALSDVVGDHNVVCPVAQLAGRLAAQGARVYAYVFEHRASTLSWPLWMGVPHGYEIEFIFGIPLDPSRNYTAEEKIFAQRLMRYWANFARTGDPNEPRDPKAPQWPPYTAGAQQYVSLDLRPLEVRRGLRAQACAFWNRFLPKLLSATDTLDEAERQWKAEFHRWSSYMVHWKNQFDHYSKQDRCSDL
Compound,IC50 [1],Activity [2],viability at 25 µM [3],inhibition [4]
C[C@@H]1CC[C@]2(C(=O)NCc3ccc(F)cc3)CC[C@]3(C)C(=CC[C@@H]4[C@@]5(C)C[C@@H](O)[C@H](O)[C@@](C)(CO)[C@@H]5CC[C@]43C)[C@@H]2[C@]1(C)O,> 100 µM,<57.76%,,
C[C@@H]1CC[C@]2(C(=O)O)CC[C@]3(C)C(=CC[C@@H]4[C@@]5(C)C[C@@H](OC(=O)c6ccc(C(F)(F)F)cc6)[C@H](OC(=O)c6ccc(C(F)(F)F)cc6)[C@@](C)(CO)[C@@H]5CC[C@]43C)[C@@H]2[C@]1(C)O,43.4 µM,>57.76%,,
COc1ccc(C(=O)OC[C@]2(C)C=C(C=O)[C@@]3(C)[C@H]2CC[C@]2(C)[C@@H]3CC=C3[C@H]4[C@](C(=O)O)(CC[C@@H](C)[C@@]4(C)OC(=O)c4ccc(OC)cc4)CC[C@]32C)cc1,70.2 µM,>57.76%,,
C[C@@H]1CC[C@]2(C(=O)O)CC[C@]3(C)C(=CC[C@@H]4[C@@]5(C)C[C@@H](OC(=O)c6ccc(Cl)cc6)[C@H](OC(=O)c6ccc(Cl)cc6)[C@@](C)(CO)[C@@H]5CC[C@]43C)[C@@H]2[C@]1(C)O,21.2 µM,>57.76%,72.5%,
CCCCCCNC(=O)[C@]12CC[C@@H](C)[C@@](C)(O)[C@H]1C1=CC[C@@]3(C)[C@@](C)(CC[C@H]4[C@](C)(CO)[C@@H](O)[C@H](O)C[C@@]43C)[C@]1(C)CC2,> 100 µM,>57.76%,,
CCCC(=O)OC[C@]1(C)C=C(C=O)[C@@]2(C)[C@H]1CC[C@]1(C)[C@@H]2CC=C2[C@H]3[C@](C(=O)O)(CC[C@@H](C)[C@@]3(C)O)CC[C@]21C,> 100 µM,<57.76%,,
C[C@@H]1CC[C@]2(C(=O)O)CC[C@]3(C)C(=CC[C@@H]4[C@@]5(C)C(C=O)=C[C@@](C)(COC(=O)CCc6ccccc6)[C@@H]5CC[C@]43C)[C@@H]2[C@]1(C)O,46.2 µM,>57.76%,,
C[C@@H]1CC[C@]2(C(=O)NCc3ccc(Cl)cc3)CC[C@]3(C)C(=CC[C@@H]4[C@@]5(C)C[C@@H](O)[C@H](O)[C@@](C)(CO)[C@@H]5CC[C@]43C)[C@@H]2[C@]1(C)O,64.8 µM,>57.76%,,
Cc1c(C)c2c(c(C)c1O)CCC(C)(C(=O)O)O2 (centres undefined) [TROLOX],,>57.76%,72.6%,
COc1ccc(C(=O)O[C@]2(C)[C@H](C)CC[C@]3(C(=O)O)CC[C@]4(C)C(=CC[C@@H]5[C@@]6(C)C(C=O)=C[C@@](C)(CO)[C@@H]6CC[C@]54C)[C@@H]32)cc1,> 100 µM,>57.76%,,
C[C@@H]1CC[C@]2(C(=O)O)CC[C@]3(C)C(=CC[C@@H]4[C@@]5(C)C[C@@H](OC(=O)CCc6ccccc6)[C@H](O)[C@@](C)(CO)[C@@H]5CC[C@]43C)[C@@H]2[C@]1(C)O,11.5 µM,>57.76%,,
C[C@@H]1CC[C@]2(C(=O)NCc3ccccc3Br)CC[C@]3(C)C(=CC[C@@H]4[C@@]5(C)C[C@@H](O)[C@H](O)[C@@](C)(CO)[C@@H]5CC[C@]43C)[C@@H]2[C@]1(C)O,47.7 µM,>57.76%,,
C[C@@H]1CC[C@]2(C(=O)NCc3ccc(Br)cc3)CC[C@]3(C)C(=CC[C@@H]4[C@@]5(C)C[C@@H](O)[C@H](O)[C@@](C)(CO)[C@@H]5CC[C@]43C)[C@@H]2[C@]1(C)O,84.5 µM,>57.76%,,
C[C@@H]1CC[C@]2(C(=O)O)CC[C@]3(C)C(=CC[C@@H]4[C@@]5(C)C(C=O)=C[C@@](C)(COC(=O)c6ccc(F)cc6)[C@@H]5CC[C@]43C)[C@@H]2[C@]1(C)O,71.9 µM,<57.76%,,
C[C@@H]1CC[C@]2(C(=O)O)CC[C@]3(C)C(=CC[C@@H]4[C@@]5(C)C[C@@H](OC(=O)CCc6ccccc6)[C@H](OC(=O)CCc6ccccc6)[C@@](C)(CO)[C@@H]5CC[C@]43C)[C@@H]2[C@]1(C)O,5.84 µM,>57.76%,72.5%,Active
C[C@@H]1CC[C@]2(C(=O)O)CC[C@]3(C)C(=CC[C@@H]4[C@@]5(C)C(C=O)=C[C@@](C)(COC(=O)c6ccc(Cl)cc6)[C@@H]5CC[C@]43C)[C@@H]2[C@]1(C)OC(=O)c1ccc(Cl)cc1,> 100 µM,>57.76%,,
C[C@@H]1CC[C@]2(C(=O)NC3CCCCC3)CC[C@]3(C)C(=CC[C@@H]4[C@@]5(C)C[C@@H](O)[C@H](O)[C@@](C)(CO)[C@@H]5CC[C@]43C)[C@@H]2[C@]1(C)O,80.4 µM,>57.76%,,

Compound,IC50 [1],Activity [2],viability at 25 µM [3],inhibition [4]
C[C@@H]1CC[C@]2(C(=O)NCc3cccc(Br)c3)CC[C@]3(C)C(=CC[C@@H]4[C@@]5(C)C[C@@H](O)[C@H](O)[C@@](C)(CO)[C@@H]5CC[C@]43C)[C@@H]2[C@]1(C)O,78 µM,>57.76%,72.5%,
C[C@@H]1CC[C@]2(C(=O)NCCc3c[nH]c4ccccc34)CC[C@]3(C)C(=CC[C@@H]4[C@@]5(C)C[C@@H](O)[C@H](O)[C@@](C)(CO)[C@@H]5CC[C@]43C)[C@@H]2[C@]1(C)O,51.3 µM,>57.76%,72.5%,
CCCCCC(=O)OC[C@]1(C)C=C(C=O)[C@@]2(C)[C@H]1CC[C@]1(C)[C@@H]2CC=C2[C@H]3[C@](C(=O)O)(CC[C@@H](C)[C@@]3(C)O)CC[C@]21C,> 100 µM,>57.76%,,
C[C@@H]1CC[C@]2(C(=O)O)CC[C@]3(C)C(=CC[C@@H]4[C@@]5(C)C(C=O)=C[C@@](C)(COC(=O)c6ccc(C(F)(F)F)cc6)[C@@H]5CC[C@]43C)[C@@H]2[C@]1(C)O,> 100 µM,>57.76%,,
C[C@@H]1CC[C@]2(C(=O)O)CC[C@]3(C)C(=CC[C@@H]4[C@@]5(C)C[C@@H](OC(=O)c6ccc(Cl)cc6)[C@H](OC(=O)c6ccc(Cl)cc6)[C@@](C)(COC(=O)c6ccc(Cl)cc6)[C@@H]5CC[C@]43C)[C@@H]2[C@]1(C)O,5.91 µM,>57.76%,,
C[C@@H]1CC[C@]2(C(=O)O)CC[C@]3(C)C(=CC[C@@H]4[C@@]5(C)C[C@@H](O)[C@H](O)[C@@](C)(CO)[C@@H]5CC[C@]43C)[C@@H]2[C@]1(C)O,23.2 µM,>57.76%,72.8%,
C[C@@H]1CC[C@]2(C(=O)NCCc3ccc(Cl)c(Cl)c3)CC[C@]3(C)C(=CC[C@@H]4[C@@]5(C)C[C@@H](O)[C@H](O)[C@@](C)(CO)[C@@H]5CC[C@]43C)[C@@H]2[C@]1(C)O,> 100 µM,>57.76%,,
C[C@@H]1CC[C@]2(C(=O)NCc3cccc(Cl)c3)CC[C@]3(C)C(=CC[C@@H]4[C@@]5(C)C[C@@H](O)[C@H](O)[C@@](C)(CO)[C@@H]5CC[C@]43C)[C@@H]2[C@]1(C)O,63 µM,>57.76%,,
C[C@@H]1CC[C@]2(C(=O)O)CC[C@]3(C)C(=CC[C@@H]4[C@@]5(C)C(C=O)=C[C@@](C)(CO)[C@@H]5CC[C@]43C)[C@@H]2[C@]1(C)O,> 100 µM,>57.76%,,
C[C@@H]1CC[C@]2(C(=O)O)CC[C@]3(C)C(=CC[C@@H]4[C@@]5(C)C[C@@H](O)[C@H](OC(=O)c6ccc(C(F)(F)F)cc6)[C@@](C)(CO)[C@@H]5CC[C@]43C)[C@@H]2[C@]1(C)O,> 100 µM,>57.76%,,
C[C@@H]1CC[C@]2(C(=O)NCc3cccc(F)c3)CC[C@]3(C)C(=CC[C@@H]4[C@@]5(C)C[C@@H](O)[C@H](O)[C@@](C)(CO)[C@@H]5CC[C@]43C)[C@@H]2[C@]1(C)O,> 100 µM,<57.76%,,
C[C@@H]1CC[C@]2(C(=O)NCc3ccccc3F)CC[C@]3(C)C(=CC[C@@H]4[C@@]5(C)C[C@@H](O)[C@H](O)[C@@](C)(CO)[C@@H]5CC[C@]43C)[C@@H]2[C@]1(C)O,> 100 µM,<57.76%,,
C[C@@H]1CC[C@]2(C(=O)O)CC[C@]3(C)C(=CC[C@@H]4[C@@]5(C)C[C@@H](O)OCC(C)(C=O)[C@@H]5CC[C@]43C)[C@@H]2[C@]1(C)O (some centres undefined),> 100 µM,>57.76%,,
C[C@@H]1CC[C@]2(C(=O)O)CC[C@]3(C)C(=CC[C@@H]4[C@@]5(C)C[C@@H](OC(=O)c6ccc(Cl)cc6)[C@H](O)[C@@](C)(CO)[C@@H]5CC[C@]43C)[C@@H]2[C@]1(C)OC(=O)c1ccc(Cl)cc1,54.3 µM,<57.76%,,
COc1ccc(C(=O)O[C@]2(C)[C@H](C)CC[C@]3(C(=O)O)CC[C@]4(C)C(=CC[C@@H]5[C@@]6(C)C[C@@H](O)[C@H](O)[C@@](C)(CO)[C@@H]6CC[C@]54C)[C@@H]32)cc1,63.5 µM,>57.76%,72.5%,
C[C@@H]1CC[C@]2(C(=O)NCc3ccccc3)CC[C@]3(C)C(=CC[C@@H]4[C@@]5(C)C[C@@H](O)[C@H](O)[C@@](C)(CO)[C@@H]5CC[C@]43C)[C@@H]2[C@]1(C)O,65.1 µM,>57.76%,72.5%,
